Consider five molecules from ChEMBL document CHEMBL1201862, “PubChem BioAssay data set” (2004).

In assay [1] the target is T1, Runt-related transcription factor 1/Core-binding factor subunit beta (Homo sapiens, UniProt Q01196+Q13951). Description: Confirmation of compounds inhibiting the binding between the RUNX1 Runt domain and CBFb-SMMHC via a fluorescence resonance energy transfer (FRET) assay. [Related pubchem assays (depositor defined):AID1434, AID1438, AID1496, AID1550, AID1645]. Type of assay: protein assay.

Assay [2] addresses T2, Voltage-gated N-type calcium channel alpha-1B subunit/Amyloid beta A4 precursor protein-binding family A member 1 (Homo sapiens, UniProt Q00975+Q02410). Type of assay: protein assay.
Assay [3] concerns the target T2, Voltage-gated N-type calcium channel alpha-1B subunit/Amyloid beta A4 precursor protein-binding family A member 1. It is filed as protein assay. The source holds these as a separate data set.
Assay [4] addresses Induced myeloid leukemia cell differentiation protein Mcl-1 (Homo sapiens, UniProt Q07820). Type of assay: functional.
For a further assay, the target named is T3, Hexokinase HKDC1 (Homo sapiens, UniProt Q2TB90).
T3 sequence (Q2TB90 whole entry): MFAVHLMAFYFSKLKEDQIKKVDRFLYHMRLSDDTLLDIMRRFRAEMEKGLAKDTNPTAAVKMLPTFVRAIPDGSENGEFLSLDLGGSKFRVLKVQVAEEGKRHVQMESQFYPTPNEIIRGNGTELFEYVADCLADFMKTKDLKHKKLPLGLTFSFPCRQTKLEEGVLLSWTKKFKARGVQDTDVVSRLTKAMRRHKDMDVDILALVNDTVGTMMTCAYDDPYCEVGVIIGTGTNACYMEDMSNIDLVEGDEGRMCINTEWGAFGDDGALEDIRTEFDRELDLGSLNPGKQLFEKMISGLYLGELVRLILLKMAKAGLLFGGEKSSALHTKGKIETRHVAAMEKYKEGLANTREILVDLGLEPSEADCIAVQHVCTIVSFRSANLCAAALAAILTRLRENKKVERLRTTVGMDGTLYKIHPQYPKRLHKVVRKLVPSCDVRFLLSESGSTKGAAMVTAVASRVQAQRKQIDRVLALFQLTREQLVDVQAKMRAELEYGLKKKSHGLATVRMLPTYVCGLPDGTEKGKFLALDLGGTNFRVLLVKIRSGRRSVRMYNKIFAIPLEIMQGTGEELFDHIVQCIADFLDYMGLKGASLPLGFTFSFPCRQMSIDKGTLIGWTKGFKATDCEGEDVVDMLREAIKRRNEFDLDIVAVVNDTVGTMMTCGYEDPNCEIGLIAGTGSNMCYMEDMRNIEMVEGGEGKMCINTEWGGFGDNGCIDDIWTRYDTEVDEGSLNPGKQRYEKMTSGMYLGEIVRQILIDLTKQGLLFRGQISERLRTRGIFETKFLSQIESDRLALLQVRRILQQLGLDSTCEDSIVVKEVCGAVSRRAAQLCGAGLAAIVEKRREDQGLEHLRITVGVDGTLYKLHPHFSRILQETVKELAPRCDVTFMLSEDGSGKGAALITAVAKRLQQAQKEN
Description: HKDC1 hexokinase activators, dose response, biochemical, W721R variant (AID 504730). Type of assay: functional.

A further assay concerns the target T4, Hexokinase-1 (Homo sapiens, UniProt P19367).
T4 sequence (P19367 whole entry): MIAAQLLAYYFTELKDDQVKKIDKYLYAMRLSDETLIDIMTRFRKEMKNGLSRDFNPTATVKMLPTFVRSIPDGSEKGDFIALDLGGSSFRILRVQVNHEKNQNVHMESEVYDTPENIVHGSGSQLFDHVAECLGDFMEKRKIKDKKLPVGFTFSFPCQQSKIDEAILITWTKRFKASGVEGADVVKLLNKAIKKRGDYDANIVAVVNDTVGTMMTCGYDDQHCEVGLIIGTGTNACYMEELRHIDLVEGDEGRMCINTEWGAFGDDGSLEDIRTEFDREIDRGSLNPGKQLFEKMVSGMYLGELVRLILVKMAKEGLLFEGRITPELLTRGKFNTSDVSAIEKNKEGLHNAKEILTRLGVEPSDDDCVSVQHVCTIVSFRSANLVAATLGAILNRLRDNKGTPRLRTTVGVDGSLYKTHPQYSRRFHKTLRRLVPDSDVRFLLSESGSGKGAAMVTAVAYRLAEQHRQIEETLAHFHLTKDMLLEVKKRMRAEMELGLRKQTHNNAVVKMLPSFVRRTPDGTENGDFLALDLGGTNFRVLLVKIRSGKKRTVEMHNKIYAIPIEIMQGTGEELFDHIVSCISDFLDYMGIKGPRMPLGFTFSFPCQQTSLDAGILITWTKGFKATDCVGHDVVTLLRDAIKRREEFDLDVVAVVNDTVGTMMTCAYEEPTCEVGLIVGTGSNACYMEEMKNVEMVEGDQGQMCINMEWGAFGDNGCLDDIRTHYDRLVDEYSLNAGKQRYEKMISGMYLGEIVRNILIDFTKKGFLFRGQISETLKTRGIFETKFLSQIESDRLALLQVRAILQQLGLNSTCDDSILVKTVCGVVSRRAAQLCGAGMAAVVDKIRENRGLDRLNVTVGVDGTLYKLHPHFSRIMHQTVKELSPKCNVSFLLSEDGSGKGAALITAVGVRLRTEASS
Description: hexokinase 1 activators, dose response, selectivity assay for HKDC1 activator project, biochemical (AID 504762). It is filed as functional.

The test system of a further assay is Vero. Kind of assay: host cell cytotoxicity of antiviral hits, dose response, cytotoxicity control for West Nile virus antiviral project, secondary assay (AID 1650). Type of assay: functional. Conditions: Chlorocebus sabaeus.
The target of assay [5] is T5, Sphingosine 1-phosphate receptor 4 (Homo sapiens, UniProt O95977).
T5 sequence (O95977 whole entry): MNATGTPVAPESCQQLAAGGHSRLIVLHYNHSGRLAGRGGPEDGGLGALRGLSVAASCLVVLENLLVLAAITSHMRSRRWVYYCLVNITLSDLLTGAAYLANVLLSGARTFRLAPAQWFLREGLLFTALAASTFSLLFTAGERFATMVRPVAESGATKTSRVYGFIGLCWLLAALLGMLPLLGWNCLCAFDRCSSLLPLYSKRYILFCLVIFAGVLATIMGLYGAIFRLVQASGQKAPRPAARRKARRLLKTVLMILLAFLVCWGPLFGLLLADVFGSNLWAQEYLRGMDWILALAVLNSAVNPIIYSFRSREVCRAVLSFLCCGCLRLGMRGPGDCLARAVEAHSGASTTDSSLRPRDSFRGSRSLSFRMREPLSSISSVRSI
Kind of assay: Fluorescence dose response cell-based high throughput screening assay for antagonists of the Sphingosine 1-Phosphate Receptor 4 (S1P4). [Related pubchem assays: 1524 (Confirmation in triplicates.), 1510 (Primary screen.)]. Type of assay: functional.

For assay [6], the target named is Sphingosine 1-phosphate receptor 1 (Homo sapiens, UniProt P21453). Type of assay: functional.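 Also: Tango beta-arrestin reporter U2OS cells stimulated with S1P near its EC80; inhibitor potency meaning antagonism of receptor activation by the natural agonist.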
Assay [7] in a line: Intein inhibitors as potential Tuberculosis drugs, a cytotoxicity screen. [Related pubchem assays (depositor defined):AID2221, AID2223, AID434968, AID435010, AID449749, AID449750, AID489010]. It is filed as functional.
Assay [8] addresses T6, Replicative DNA helicase DnaB (Mycobacterium tuberculosis, UniProt P9WMR3).
T6 sequence (P9WMR3 whole entry): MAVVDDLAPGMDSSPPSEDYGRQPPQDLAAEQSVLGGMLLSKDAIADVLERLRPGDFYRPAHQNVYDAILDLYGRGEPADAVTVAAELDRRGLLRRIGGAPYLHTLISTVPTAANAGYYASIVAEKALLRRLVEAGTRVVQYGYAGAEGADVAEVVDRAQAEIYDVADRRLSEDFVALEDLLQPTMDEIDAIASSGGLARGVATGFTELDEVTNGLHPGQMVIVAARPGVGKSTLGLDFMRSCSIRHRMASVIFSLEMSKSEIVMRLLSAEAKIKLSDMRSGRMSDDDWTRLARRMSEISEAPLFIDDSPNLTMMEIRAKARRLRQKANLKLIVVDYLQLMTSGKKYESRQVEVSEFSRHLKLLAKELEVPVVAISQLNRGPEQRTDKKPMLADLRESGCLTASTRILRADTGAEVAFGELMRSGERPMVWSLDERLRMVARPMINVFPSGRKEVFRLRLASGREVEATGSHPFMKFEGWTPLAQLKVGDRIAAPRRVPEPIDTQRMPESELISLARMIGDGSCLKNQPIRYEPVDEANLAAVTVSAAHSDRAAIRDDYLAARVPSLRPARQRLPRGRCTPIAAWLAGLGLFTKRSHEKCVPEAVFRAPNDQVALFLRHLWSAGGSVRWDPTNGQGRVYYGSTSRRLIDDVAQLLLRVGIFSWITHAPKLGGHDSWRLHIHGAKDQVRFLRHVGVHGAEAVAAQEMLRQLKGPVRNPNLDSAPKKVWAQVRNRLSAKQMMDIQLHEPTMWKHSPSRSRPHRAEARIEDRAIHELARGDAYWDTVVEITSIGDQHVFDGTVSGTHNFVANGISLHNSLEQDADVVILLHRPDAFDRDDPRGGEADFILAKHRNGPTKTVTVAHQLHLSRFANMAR
Description: DnaB intein splicing inhibitors, dose response, biochemical, cell-free fluorescence (AID 449749). Type of assay: functional.

A further assay concerns the target T7, Protein RecA (Mycobacterium tuberculosis, UniProt P9WHJ3).
T7 sequence (P9WHJ3 whole entry): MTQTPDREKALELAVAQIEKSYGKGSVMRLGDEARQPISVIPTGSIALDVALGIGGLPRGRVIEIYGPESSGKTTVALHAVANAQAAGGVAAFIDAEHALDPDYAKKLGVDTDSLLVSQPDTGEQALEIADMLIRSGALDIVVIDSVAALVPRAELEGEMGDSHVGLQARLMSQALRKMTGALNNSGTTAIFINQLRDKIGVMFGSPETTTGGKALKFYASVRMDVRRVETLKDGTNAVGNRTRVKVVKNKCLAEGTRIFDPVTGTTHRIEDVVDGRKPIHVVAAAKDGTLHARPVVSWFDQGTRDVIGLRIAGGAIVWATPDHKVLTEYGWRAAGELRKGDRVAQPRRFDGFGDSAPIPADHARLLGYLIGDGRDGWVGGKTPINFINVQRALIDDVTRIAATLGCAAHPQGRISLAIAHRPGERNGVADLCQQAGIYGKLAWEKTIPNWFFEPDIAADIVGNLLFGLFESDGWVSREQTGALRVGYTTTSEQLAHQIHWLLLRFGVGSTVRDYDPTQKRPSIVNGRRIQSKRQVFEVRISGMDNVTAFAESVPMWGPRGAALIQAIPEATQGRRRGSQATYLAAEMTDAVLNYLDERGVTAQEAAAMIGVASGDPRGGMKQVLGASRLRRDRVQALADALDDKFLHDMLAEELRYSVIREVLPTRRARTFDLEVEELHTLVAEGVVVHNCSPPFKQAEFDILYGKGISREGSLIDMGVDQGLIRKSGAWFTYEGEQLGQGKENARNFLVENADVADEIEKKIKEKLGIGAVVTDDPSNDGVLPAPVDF
Description: Fluorescence Cell-Free Homogeneous Dose Retest to Identify Inhibitors of RecA-Intein Splicing Activity. [Related pubchem assays (depositor defined):AID2097, AID2223, AID489010, AID492950]. It is filed as functional.

A further assay deals with INS1. Description: beta cell apoptosis inhibitors, cytokine rescue, dose response, luminescence, retest (AID 449756).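 Also: cell death triggered by IL-1 beta plus TNF-alpha plus IFN-gamma mixture; protective hits raise ATP signal compared with cytokine alone wells.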 Type of assay: functional, cell-based. To be noted: Rattus norvegicus.
The target in assay [9] is Beta-lactamase (Pseudomonas aeruginosa, UniProt Q79MP6).
Assay [10] deals with Beta-lactamase (Salmonella choleraesuis (strain SC-B67), UniProt Q5J463).
The next assay has as its system HeLa. Description: HeLa cell cytotoxicity, dose response, cytotoxicity control, 24 h, cherry-picked samples (AID 504726).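 Also: potency for cytotoxicity as loss of luminescence signal.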 It is filed as functional, cell-based. Conditions: Homo sapiens.
The target in another assay is ORF 73 (Human herpesvirus 8, UniProt O40947). Kind of assay: inhibitors of C-LANA binding to LBS DNA, dose response, biochemical, fluorescence polarization, cherry-picked samples (AID 504725).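 Also: fluorescence polarization of a labeled DNA duplex reporting LANA DNA binding; potency is for inhibitors that block LANA binding to the DNA.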 Further details: species or system Human gammaherpesvirus 8. (In general: In fluorescence polarisation assays a small probe gives low polarisation when free and higher when bound to something large.)

The next assay addresses Troponin, cardiac muscle (Homo sapiens, UniProt P19429+P45379+P63316). Kind of assay: Fluorescence-based biochemical high throughput dose response assay for activators of the calcium sensitivity of cardiac Regulated Thin Filaments (RTF). [Related pubchem assays (depositor defined):AID493008, AID493018, AID504382, AID504383]. It is filed as protein-complex assay.
Assay [11] concerns the target T1, Runt-related transcription factor 1/Core-binding factor subunit beta. Kind of assay: inhibitors of RUNX1 Runt–CBFb-SMMHC binding, primary screen, biochemical, FRET, Cerulean-Runt, Venus-CBFb-SMMHC, uHTS (AID 1434).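 Also: partner is the CBFb-SMMHC leukemia fusion protein rather than wild-type CBFb.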 It is filed as protein assay.
The target is the same in assay [12]. Description: inhibitors of RUNX1 Runt–CBFb-SMMHC binding, biochemical, TR-FRET (AID 1438). It is filed as protein assay. For orientation: Time-resolved FRET reads energy transfer from a long-lived donor to a nearby acceptor.

Structures are written as SMILES. Active and inactive are the calls of the source.

Broadly, the IC50 is the concentration that gives 50% inhibition. On to `CCc1ccc(S(=O)(=O)Nc2ccc(-c3nc4cccnc4s3)cc2)s1`, for which the IC50 in assay [1] was > 100 µM (inactive).
The term EC50 denotes the concentration that produces a half-maximal response. As to `CC(=O)Nc1ccc(C2=NN=C(Nc3ccc(S(=O)(=O)N4CCOCC4)cc3)SC2)cc1`, the IC50 in assay [2] is 13.8 µM (active); in assay [3], > 50 µM (inactive); in [4] it was 1.61 µM (active). For the same molecule, the EC50 on Hexokinase HKDC1 is 7.92 µM (active); at Hexokinase-1 it was 7.65 µM (active).
As usually defined, the CC50 is the concentration at which the toxic effect on the cells reaches its halfway point. By AC50 is commonly meant the midpoint of the concentration-response curve, whichever way the signal moves. Consider `Cc1c(/C=N/Nc2nc3ccccc3[nH]2)c2ccccc2n1C`, for which the CC50 is 39.2 µM (active) with Vero and 18.1 µM (active) in assay [7]. Also, the figures for the IC50 in [5] and in assay [6] were 1.76 µM (active) and 6.78 µM (active), respectively. For the same molecule, the AC50 in assay [8] was 3.82 µM (active); in the assay on INS1 it was 4.83 µM (active). In addition, at Protein RecA, the EC50 is 1.99 µM (active).
As for `O=[N+]([O-])c1ccc(N2CCCCCC2)c2nonc12`, the IC50 is > 59.6 µM (inactive) on Beta-lactamase [9] and 22.4 µM (inactive) at Beta-lactamase [10]. For the same molecule, the AC50 in the assay with HeLa was 69.4 µM (active); on ORF 73, 54.6 µM (active). The EC50 on Troponin, cardiac muscle was 0.413 µM (active).
With `COc1cccc(-c2nc(-c3ccc4c(c3)-c3ccccc3S4(=O)=O)c(-c3ccccc3)[nH]2)c1OC`, the IC50 in assay [11] is 33.6 µM (active); in assay [12], > 100 µM (inactive).
